# Assays:
# Type in all cases: in vivo
# rice stem borer larvae = assay: micro dropping (topical) test on hibernating rice stem borer larvae (Experimental Example 3); conditions: topical in acetone, head and tail of larvae, 3 days
# Excerpt: The present compounds (1), (4), (8), (10), (14), (15), (22), (32), (36), (38), (41), (44), (48), (50), (51), (52), (53), (61), (66), (68), (72), (73), (80), (81), (90) and (93) and chrysanthemic acid esters corresponding thereto were individually dissolved in acetone to prepare insecticides of various concentrations. Using a micro dropping means, each of the insecticides was dropped to the head and tail of hibernating rice stem borer larvae.
# house flies = assay: Campbell's turn table oil spray test on house fly adults (Experimental Example 1); conditions: Musca domestica, 24 h, oil spray 5 ml, 10 min exposure, mortality after 1 day, read-out: LC50 (50 percent lethal concentration)
# Description: The present compounds (1), (4), (8), (10), (14), (15), (20), (22), (32), (36), (38), (41), (44), (48), (50), (51), (52), (53), (61), (66), (68), (72), (73), (78), (80), (81), (90), (93) and (96), and chrysanthemic acid esters and pyrethric acid esters corresponding thereto were individually formulated by use of deodorized kerosene into oil sprays of various test concentrations.
# Using the Campbell's turn table [disclosed in "Soap & Sanitary Chemicals," Vol. 14, No. 6, page 119 (1938)], 5 ml. of each of the oil sprays was sprayed. When 20 seconds had elapsed after the spraying, the shutter was opened, and adults of house flies (a group of about 100 flies) were exposed to the settling mist for 10 minutes and then transferred to an observation cage.
# The above operation was repeated several times to measure the LC50 (50 percent lethal concentration) of each compound.
# [1] = tested on: Northern house mosquitoes; assay: knock-down test of oil sprays on Northern house mosquito adults in (70 cm)^3 glass chamber (Experimental Example 2)
# Description: The present compounds (1), (6), (20), (22), (23), (25), (27), (29), (30), (31), (39), (42), (43), (45), (49), (53), (56), (62), (64), (78), (81), (83), (85), (87), (88) and (89), and chrysanthemic acid esters and pyrethric acid esters corresponding thereto were individually formulated by use of deodorized kerosene into oil sprays of various test concentrations.
# About 20 adults of Northern house mosquitoes were liberated in a (70 cm)^3 glass chamber, and 0.7 ml. of each of the oil sprays was sprayed into the chamber under a pressure of 1.5 kg/cm^2 by use of a glass atomizer. Subsequently, the number of knocked-down mosquitoes was counted to calculate the KT50 (50 percent knock down time) of each compound.
# [2] = concentration of oil spray 0.1%
# [3] = concentration of oil spray 0.2%
SMILES,LD50 (50 percent lethal dose) (rice stem borer larvae),LC50 (house flies),"KT50 (50 percent knock down time) [1, 2]","KT50 (50 percent knock down time) [1, 3]"
"CC(C)=CC1C(C(=O)OC(C#N)c2cccc(Oc3ccccc3)c2)C1(C)C (stereo not drawn) [3-Phenoxy-α-cyanobenzyl chrysanthemate, reference compound]",0.01 γ/larva,60 µg/mL,230 s,
"CC(C)=CC1C(C(=O)OCc2coc(Cc3ccccc3)c2)C1(C)C (centres unmarked) [5-Benzyl-3-furylmethyl chrysanthemate, 5-benzyl-3-furylmethyl chrysanthemate, reference compound]",0.20 γ/larva,100 µg/mL,,205 s
"C=CCC1=C(C)C(OC(=O)C2C(C=C(C)C)C2(C)C)CC1=O (centres unmarked) [Allethrin, reference compound]",2.6 γ/larva,1180 µg/mL,292 s,197 s
"C=CC(C)=CC1C(C(=O)OCc2coc(Cc3ccccc3)c2)C1(C)C (centres unmarked) [Present compound (1), 5-Benzyl-3-furylmethyl 2',2'-dimethyl-3'-(2""-methyl-1"", 3""-butadienyl)-cyclopropanecarboxylate]",0.068 γ/larva,53 µg/mL,,131 s
"C=CC(C)=CC1C(C(=O)OC(C#N)c2cccc(Oc3ccccc3)c2)C1(C)C (stereo not drawn) [Present compound (22), 3-Phenoxy-α-cyanobenzyl 2',2'-dimethyl-3'-(2""-methyl-1"",3""-butadienyl)-cyclopropanecarboxylate]",0.006 γ/larva,40 µg/mL,168 s,
"C=C(C)C=CC1C(C(=O)OCc2coc(Cc3ccccc3)c2)C1(C)C (centres unmarked) [Present compound (53), 5-Benzyl-3-furylmethyl 2',2'-dimethyl-3'-(3""-methyl-1"",3""-butadienyl)-cyclopropanecarboxylate]",0.170 γ/larva,71 µg/mL,,124 s
"C=CC=CC1C(C(=O)OC2CC(=O)C(CC=C)=C2C)C1(C)C (centres unmarked) [Present compound (81), 2-Allyl-3-methyl-2-cyclopentene-1-one-4-yl 2',2'-dimethyl-3'-(1"",3""-butadienyl)-cyclopropanecarboxylate]",1.7 γ/larva,590 µg/mL,,141 s
"C=CC=CC1C(C(=O)OCC=C(Cl)Cc2ccccc2)C1(C)C (centres unmarked) [Present compound (90), 3-Chloro-4-phenyl-2-butene-1-yl 2',2'-dimethyl-3'-(1"",3""-butadienyl)-cyclopropanecarboxylate]",0.43 γ/larva,170 µg/mL,,
"C=CC=CC1C(C(=O)OCc2c(C)cc(CC=C)cc2C)C1(C)C (centres unmarked) [Present compound (93), 2,6-Dimethyl-4-allylbenzyl 2',2'-dimethyl-3'-(1"",3""-butadienyl)-cyclopropanecarboxylate]",0.21 γ/larva,230 µg/mL,,

# Reference: patent US3954814A, “Alkadienylcyclopropanecarboxylates” (Sumitomo Chemical Company, Limited, priority 1971, dated 1976)
